{
  "source": "patent US20240099214A1",
  "about": "“PLANT DEFENCE GENE EXPRESSION” (UPL Corporation Limited, priority 2021, published 2024)",
  "key": {"[1]": {"test_system": "Subtilisin-like protease-like (gene 9, Solyc01g087800.2)", "test": "qRT-PCR expression of gene 9 in tomato leaves", "type": "in vivo, Tomato ecotype corbarino", "parameters": "key to RQ1 / RQ2 / RQ3 / RQ mean: relative expression normalized to a-tubulin housekeeping gene", "method": "(§1) Tomato ecotype “corbarino” reported to be susceptible to TSWV infection was used in the experiment. Plants were grown in pots in a climatic chamber with a photoperiod of 16/8 hour at 25° C.\n(§2) The viral strain (TSWV PV PV-0393) was utilized in the experiment. The virus was mechanically inoculated and propagated on tomato “corbarino”. The inoculum was prepared in an ice-cooled mortar grounding 1 gr of infected tomato tissue in 10 ml of Na-phosphate buffer 0.01M. The fresh prepared inoculum was stored in ice before use. Tomato plants at BBCH16 were dusted with Carborundum 600 mesh and selected leaves were rubbed with some droplets of inoculum. After 5 min. plants were sprayed with sterile water to remove the excess of inoculum and preserve the cell turgor.\n(§3) Four treatments were compared: i) Mock inoculated; ii) TSWV; iii) 0.25% Laminarin; iv) 0.25% Laminarin+TSWV. In the last treatment the virus was inoculated 24 hrs after the laminarin application.\n(§4) Total RNA was extracted from systemic infected tomato leaves by using the Quick-RNA Plant Kit (Zymo Research) following the manufacturer instructions. The extractions were carried out using three plants after 12 h, 24 h, 48 h, 72 h, 7 days after inoculation. Leaves were instantly frozen in liquid nitrogen after cutting to avoid any deterioration of the sample as well as any defense reaction. The RNA concentration was quantified by measuring the absorbance at 260 nm using a Nanodrop 2000 (Thermofisher). The purity of all of the RNA samples was assessed at an absorbance ratio of OD260/280 and OD260/230, while its structural integrity was checked by agarose gel electrophoresis. Only high-quality RNA with OD 260/280 and OD 260/230>2 was used for subsequent steps. Single-stranded cDNA was synthesized from 1 μg of total RNA using an iScript™ Select cDNA Synthesis Kit and random hexamers as primers (Bio-Rad, Milan, Italy), according to the manufacturer's instructions. Three biological replicates were created from the 3 leaves collected to test 15 genes. Alpha tubulin was used as reference gene.\n(§5) qPCR reactions were performed with BioRad (Applied Biosystems, Foster City, CA, USA) using SYBR R Green. Each reaction was performed in 20 μl containing 10 μl of 2× Power SYBR Green PCR Master Mix (Life Technologies), 0.2-0.3 μM primers and cDNA samples diluted 1:20. Each qPCR reaction was performed in triplicate. Reactions were run using the cycling parameter described previously (Reid et al., 2006) and the qPCR data were analyzed by the Ct method (Pfaffl, 2001). In order to analyze the qPCR data, a-tubulin gene was used as housekeeping to determine the relative expression level of the other genes analyzed in this work. For the determination of qPCR efficiency of each primer pairs, a standard curve was performed using the following cDNA dilutions: 1:4, 1:16, 1:64; 1:256 and 1:1024. Every measurement was made in triplicate. The corresponding qPCR efficiencies (E) were calculated for every primer pair with the software 7300 System SDS software (Applied Biosystems, Foster City, CA, USA) according to the equation E=(10−1/slope−1)×100 (Rutledge and Stewart, 2008).\n(§6) The significance of the differences between the gene expressions levels were compared by one-way ANOVA (p=0.01) and the means were separated by Tukey post-hoc test using SPSS ver.26 ([…])."}, "[2]": {"test_system": "PR protein (gene 12, M69248.1)", "test": "qRT-PCR expression of gene 12 in tomato leaves", "type": "in vivo, Tomato ecotype corbarino", "parameters": "key to RQ1 / RQ2 / RQ3 / RQ mean: relative expression normalized to a-tubulin housekeeping gene", "details": "for gene 12 (PR1 protein) expression: laminarin treatment group not specified", "method": "as §1, §2, §3, §4, §5, §6"}, "[3]": {"details": "Gene_12, 24 hr, treatment Laminarin"}, "[4]": {"details": "Gene_12, 24 hr, treatment Laminarin + virus"}, "[5]": {"details": "Gene_12, 48 hr, treatment Laminarin"}, "[6]": {"details": "Gene_12, 48 hr, treatment Laminarin + virus"}, "[7]": {"details": "Gene_12, 72 hr, treatment Laminarin"}, "[8]": {"details": "Gene_12, 72 hr, treatment Laminarin + virus"}},
  "data": [
    {"substance": "laminarin", "values": [
      {"measurement": "RQ1", "setting": "[1]; 12 hr, Laminarin + virus", "value": 0.9838},
      {"measurement": "RQ2", "setting": "[1]; 12 hr, Laminarin + virus", "value": 0.8556},
      {"measurement": "RQ3", "setting": "[1]; 12 hr, Laminarin + virus", "value": 10.797},
      {"measurement": "RQ mean", "setting": "[1]; 12 hr, Laminarin + virus", "value": 0.9730},
      {"measurement": "RQ1", "setting": "[1]; 12 hr, Laminarin alone", "value": 0.8527},
      {"measurement": "RQ2", "setting": "[1]; 12 hr, Laminarin alone", "value": 0.8398},
      {"measurement": "RQ3", "setting": "[1]; 12 hr, Laminarin alone", "value": 10.240},
      {"measurement": "RQ mean", "setting": "[1]; 12 hr, Laminarin alone", "value": 0.9055},
      {"measurement": "RQ1", "setting": "[1]; 24 hr, Laminarin + virus", "value": 0.8394},
      {"measurement": "RQ2", "setting": "[1]; 24 hr, Laminarin + virus", "value": 10.098},
      {"measurement": "RQ3", "setting": "[1]; 24 hr, Laminarin + virus", "value": 11.565},
      {"measurement": "RQ mean", "setting": "[1]; 24 hr, Laminarin + virus", "value": 10.019},
      {"measurement": "RQ1", "setting": "[1]; 24 hr, Laminarin alone", "value": 13.867},
      {"measurement": "RQ2", "setting": "[1]; 24 hr, Laminarin alone", "value": 0.9303},
      {"measurement": "RQ3", "setting": "[1]; 24 hr, Laminarin alone", "value": 10.466},
      {"measurement": "RQ mean", "setting": "[1]; 24 hr, Laminarin alone", "value": 11.212},
      {"measurement": "gene 9 expression compared to TSWV treatment", "setting": "[1]; 48 hr, 0.25% laminarin + TSWV inoculated 24 hrs later", "value": "inverted"},
      {"measurement": "gene 9 expression compared to TSWV treatment", "setting": "[1]; 48 hr, 0.25% laminarin alone", "value": "inverted"},
      {"measurement": "RQ1", "setting": "[1]; 48 hr, Laminarin + virus", "value": 15.088},
      {"measurement": "RQ2", "setting": "[1]; 48 hr, Laminarin + virus", "value": 17.637},
      {"measurement": "RQ3", "setting": "[1]; 48 hr, Laminarin + virus", "value": 13.474},
      {"measurement": "RQ mean", "setting": "[1]; 48 hr, Laminarin + virus", "value": 15.400},
      {"measurement": "RQ1", "setting": "[1]; 48 hr, Laminarin alone", "value": 16.481},
      {"measurement": "RQ2", "setting": "[1]; 48 hr, Laminarin alone", "value": 15.436},
      {"measurement": "RQ3", "setting": "[1]; 48 hr, Laminarin alone", "value": 13.847},
      {"measurement": "RQ mean", "setting": "[1]; 48 hr, Laminarin alone", "value": 15.255},
      {"measurement": "RQ1", "setting": "[1]; 72 hr, Laminarin + virus", "value": 0.9998},
      {"measurement": "RQ2", "setting": "[1]; 72 hr, Laminarin + virus", "value": 10.127},
      {"measurement": "RQ3", "setting": "[1]; 72 hr, Laminarin + virus", "value": 0.9578},
      {"measurement": "RQ mean", "setting": "[1]; 72 hr, Laminarin + virus", "value": 0.9901},
      {"measurement": "RQ1", "setting": "[1]; 72 hr, Laminarin alone", "value": 16.204},
      {"measurement": "RQ2", "setting": "[1]; 72 hr, Laminarin alone", "value": 0.7923},
      {"measurement": "RQ3", "setting": "[1]; 72 hr, Laminarin alone", "value": 18.354},
      {"measurement": "RQ mean", "setting": "[1]; 72 hr, Laminarin alone", "value": 14.160},
      {"measurement": "gene 9 expression", "setting": "[1]; 72 hr, after the treatment with laminarin", "value": "no clear overexpression"},
      {"measurement": "RQ1", "setting": "[2]; 12 hr, Laminarin + virus", "value": 10.097},
      {"measurement": "RQ2", "setting": "[2]; 12 hr, Laminarin + virus", "value": 0.9948},
      {"measurement": "RQ3", "setting": "[2]; 12 hr, Laminarin + virus", "value": 11.722},
      {"measurement": "RQ mean", "setting": "[2]; 12 hr, Laminarin + virus", "value": 10.589},
      {"measurement": "RQ1", "setting": "[2]; 12 hr, Laminarin alone", "value": 0.9616},
      {"measurement": "RQ2", "setting": "[2]; 12 hr, Laminarin alone", "value": 11.039},
      {"measurement": "RQ3", "setting": "[2]; 12 hr, Laminarin alone", "value": 10.693},
      {"measurement": "RQ mean", "setting": "[2]; 12 hr, Laminarin alone", "value": 10.449},
      {"measurement": "gene 12 (PR1 protein) expression", "setting": "[2]; 48 hr post treatment, not statistically significant", "value": "highly overexpressed"},
      {"measurement": "gene 12 (PR1 protein) expression", "setting": "[2]; 72 hr, statistically significant", "value": "overexpression of gene 12 is slightly reduced"},
      {"measurement": "activation of systemic acquired resistance (SAR), inferred from gene 12 overexpression", "setting": "[2]; 72 hr, tomato", "value": "activate the SAR"},
      {"measurement": "RQ1", "setting": "[2]; [3]", "value": 11.678},
      {"measurement": "RQ2", "setting": "[2]; [3]", "value": 11.217},
      {"measurement": "RQ3", "setting": "[2]; [3]", "value": 10.555},
      {"measurement": "RQ mean", "setting": "[2]; [3]", "value": 11.150},
      {"measurement": "RQ1", "setting": "[2]; [4]", "value": 0.9321},
      {"measurement": "RQ2", "setting": "[2]; [4]", "value": 11.344},
      {"measurement": "RQ3", "setting": "[2]; [4]", "value": 11.191},
      {"measurement": "RQ mean", "setting": "[2]; [4]", "value": 10.619},
      {"measurement": "RQ1", "setting": "[2]; [5]", "value": 46.753},
      {"measurement": "RQ3", "setting": "[2]; [5]", "value": 31.171},
      {"measurement": "RQ mean", "setting": "[2]; [5]", "value": 60.670},
      {"measurement": "RQ1", "setting": "[2]; [6]", "value": 42.751},
      {"measurement": "RQ2", "setting": "[2]; [6]", "value": 56.022},
      {"measurement": "RQ3", "setting": "[2]; [6]", "value": 37.918},
      {"measurement": "RQ mean", "setting": "[2]; [6]", "value": 45.564},
      {"measurement": "RQ1", "setting": "[2]; [7]", "value": 44.543},
      {"measurement": "RQ2", "setting": "[2]; [7]", "value": 23.924},
      {"measurement": "RQ3", "setting": "[2]; [7]", "value": 31.675},
      {"measurement": "RQ mean", "setting": "[2]; [7]", "value": 33.381},
      {"measurement": "RQ1", "setting": "[2]; [8]", "value": 36.333},
      {"measurement": "RQ2", "setting": "[2]; [8]", "value": 29.356},
      {"measurement": "RQ3", "setting": "[2]; [8]", "value": 21.584},
      {"measurement": "RQ mean", "setting": "[2]; [8]", "value": 29.091}
    ]}
  ]
}
